Laboratory results published in patent publication US10167262B2, “Herbicidal substituted 3-arylpyrazoles” (FMC CORPORATION, priority 2014, dated 2019).

Legend:
Test in all cases: Test C pre-/postemergence greenhouse test, plant response rating 0-100
Assay type in all cases: in vivo
[1] = tested on: Italian ryegrass (Lolium multiflorum); details: Postemergence; for Plant response rating, Ryegrass, Italian: scale 0 to 100
Text: (§1) Seeds of plant species selected from blackgrass (Alopecurus myosuroides), Italian ryegrass (Lolium multiflorum), winter wheat (Triticum aestivum), galium (catchweed bedstraw, Galium aparine), corn (Zea mays), large (Lg) crabgrass (Digitaria sanguinalis), giant foxtail (Setaria faberii), johnsongrass (Sorghum halepense), lambsquarters (Chenopodium album), morningglory (Ipomoea coccinea), yellow nutsedge (Cyperus esculentus), pigweed (Amaranthus retroflexus), ragweed (common ragweed, Ambrosia elatior), soybean (Glycine max), barnyardgrass (Echinochloa crus-galli), oilseed rape (Brassica napus), waterhemp (common waterhemp, Amaranthus rudis), and velvetleaf (Abutilon theophrasti) were planted into a blend of loam soil and sand and treated preemergence with test chemicals formulated in a non-phytotoxic solvent mixture which included a surfactant.
(§2) At the same time, plants selected from these crop and weed species and also winter barley (Hordeum vulgare), bermudagrass (Cynodon dactylon), downy bromegrass (Bromus tectorum), canarygrass (Phalaris minor), cocklebur (common cocklebur, Xanthium strumarium), woolly cupgrass (Eriochloa villosa), deadnettle (henbit deadnettle, Lamium amplexicaule), green foxtail (Setaria viridis), goosegrass (Eleusine indica), surinam grass (Brachiaria decumbens), windgrass (Apera spica-venti), chickweed (common chickweed, Stellaria media), kochia (Kochia scoparia), and wild oat (Avena fatua), were planted in pots containing Redi-Earth® planting medium (Scotts Company, 14111 Scottslawn Road, Marysville, Ohio 43041) comprising spaghnum peat moss, vermiculite, wetting agent and starter nutrients and treated with postemergence applications of test chemicals formulated in the same manner. Plants ranged in height from 2 to 18 cm (1- to 4-leaf stage) for postemergence treatments. Treated plants and controls were maintained in a greenhouse for 13 to 15 days, after which time all species were compared to controls and visually evaluated. Plant response ratings, summarized in Table C, are based on a scale of 0 to 100 where 0 is no effect and 100 is complete control. A dash (-) response means no test result.

[2] = tested on: galium (catchweed bedstraw, Galium aparine); details: Postemergence; for Plant response rating, Galium: scale 0 to 100
Text: as §1, §2

[3] = tested on: large (Lg) crabgrass (Digitaria sanguinalis); details: Postemergence; for Plant response rating, Crabgrass, Large: scale 0 to 100
Text: as §1, §2

[4] = tested on: ragweed (common ragweed, Ambrosia elatior); details: Postemergence; for Plant response rating, Ragweed: scale 0 to 100
Text: as §1, §2

[5] = tested on: yellow nutsedge (Cyperus esculentus); details: Postemergence; for Plant response rating, Nutsedge, Yellow: scale 0 to 100
Text: as §1, §2

`Cn1cc(C(=O)c2cccs2)c(-c2cc(Cl)cc(Cl)c2)n1` [Compound 17] was tested, and the “Plant response rating (0 to 100), Ryegrass, Italian” value ([1]; 62 g ai/ha) was 0, the “Plant response rating (0 to 100), Ryegrass, Italian” value ([1]; 125 g ai/ha) was 0 and the “Plant response rating, Ryegrass, Italian” value ([1]; 250 g ai/ha) was 0. The “Plant response rating, Ryegrass, Italian” value ([1]; 500 g ai/ha) was 5, the “Plant response rating (0 to 100), Galium” value ([2]; 62 g ai/ha) was 0 and the “Plant response rating (0 to 100), Galium” value ([2]; 125 g ai/ha) was 0. The “Plant response rating, Galium” value ([2]; 250 g ai/ha) was 0, the “Plant response rating, Galium” value ([2]; 500 g ai/ha) was 20 and the “Plant response rating (0 to 100), Crabgrass, Large” value ([3]; 62 g ai/ha) was 0. For the same compound, the “Plant response rating (0 to 100), Crabgrass, Large” value ([3]; 125 g ai/ha) was 5, the “Plant response rating, Crabgrass, Large” value ([3]; 250 g ai/ha) was 10 and the “Plant response rating, Crabgrass, Large” value ([3]; 500 g ai/ha) was 15. The “Plant response rating (0 to 100), Ragweed” value ([4]; 62 g ai/ha) was 0, the “Plant response rating (0 to 100), Ragweed” value ([4]; 125 g ai/ha) was 10 and the “Plant response rating, Ragweed” value ([4]; 250 g ai/ha) was 10. The “Plant response rating, Ragweed” value ([4]; 500 g ai/ha) was 10, the “Plant response rating (0 to 100), Nutsedge, Yellow” value ([5]; 62 g ai/ha) was 0 and the “Plant response rating (0 to 100), Nutsedge, Yellow” value ([5]; 125 g ai/ha) was 5. For the same compound, the “Plant response rating, Nutsedge, Yellow” value ([5]; 250 g ai/ha) was 5 and the “Plant response rating, Nutsedge, Yellow” value ([5]; 500 g ai/ha) was 5.

`CCn1cc(C(=O)c2cccs2)c(-c2cc(Cl)cc(Cl)c2)n1` [Compound 18] was tested, and the “Plant response rating (0 to 100), Ryegrass, Italian” value ([1]; 62 g ai/ha) was 0, the “Plant response rating (0 to 100), Ryegrass, Italian” value ([1]; 125 g ai/ha) was 0 and the “Plant response rating, Ryegrass, Italian” value ([1]; 250 g ai/ha) was 0. The “Plant response rating, Ryegrass, Italian” value ([1]; 500 g ai/ha) was 5, the “Plant response rating (0 to 100), Galium” value ([2]; 62 g ai/ha) was 0 and the “Plant response rating (0 to 100), Galium” value ([2]; 125 g ai/ha) was 0. For the same compound, the “Plant response rating, Galium” value ([2]; 250 g ai/ha) was 0, the “Plant response rating, Galium” value ([2]; 500 g ai/ha) was 35 and the “Plant response rating (0 to 100), Crabgrass, Large” value ([3]; 62 g ai/ha) was 5. For the same compound, the “Plant response rating (0 to 100), Crabgrass, Large” value ([3]; 125 g ai/ha) was 5, the “Plant response rating, Crabgrass, Large” value ([3]; 250 g ai/ha) was 15 and the “Plant response rating, Crabgrass, Large” value ([3]; 500 g ai/ha) was 20. For the same compound, the “Plant response rating (0 to 100), Ragweed” value ([4]; 125 g ai/ha) was 10, the “Plant response rating, Ragweed” value ([4]; 250 g ai/ha) was 15 and the “Plant response rating, Ragweed” value ([4]; 500 g ai/ha) was 25. For the same compound, the “Plant response rating (0 to 100), Nutsedge, Yellow” value ([5]; 62 g ai/ha) was 0, the “Plant response rating (0 to 100), Nutsedge, Yellow” value ([5]; 125 g ai/ha) was 0 and the “Plant response rating, Nutsedge, Yellow” value ([5]; 250 g ai/ha) was 5. For the same compound, the “Plant response rating, Nutsedge, Yellow” value ([5]; 500 g ai/ha) was 5.
